Test results reported in patent US20100297225A1, “SUSTAINED-RELEASE PHARMACEUTICAL FORMULATION CONTAINING AN ANTIMUSCARINIC AGENT AND A WETTING AGENT AS WELL AS A PROCESS FOR THE PREPARATION THEREOF” (PHARMATHEN S.A., priority 2007, published 2010).
Structures can show the parent of a compound that is named as a salt.

Experiments:
[1] = Flowability and compressibility (Carr's Index); format: physicochemical
Text: The pharmaceutical composition is characterized by excellent pharmacotechnical properties, such as homogeneity, flowability and compressibility.

[2] = X-RD analysis of crystalline form after storage; format: physicochemical; settings: 3 months storage, normal and accelerated conditions (40°C and 75% RH)
Description: As shown in FIG. 1 by the X-RD analysis Tolterodine Tartrate is in crystalline form and all the recorded characteristic broad peaks (approximate 20 values=12.55, 16.40, 20.00, 21.20, 22.75, 23.80, 25.65, 27.45, 34.60 and 37.60) were unchanged after 3 months storage in both normal and accelerated conditions (40° C. and 75% RH). The crystal properties remain also unchanged after three months in the same conditions when the mixture is incorporated in a pharmaceutical composition with other excipients.

Cc1ccc(O)c([C@H](CCN(C(C)C)C(C)C)c2ccccc2)c1 [Tolterodine Tartrate, (R)—N,N-diisopropyl-3-(2-hydroxy-5-methylphenyl)-3-phenylpropylamine]
mean Carr's Index [1]: 38.7% | X-RD characteristic peaks of crystalline form after storage [2]: unchanged
